Measurements as given in patent US11066414B2, “Cot modulators and methods of use thereof” (Gilead Sciences, Inc., priority 2015, dated 2021).

Each compound was assayed on TNFα (assay: Cot Monocyte TNFα Cell Based Assay). Details: Homo sapiens, Monocyte, read-out: EC50 TNF, LPS-stimulated human monocytes, TNFα.

Row | Compound | EC50 [nM]
1 | N#Cc1cnc2c(Cl)cc(N[C@@H](c3cscn3)c3cn(C4CCNCC4)nn3)cc2c1Nc1ccc(F)c(Cl)c1 [Example 354, (S)-8-chloro-4-((3-chloro-4-fluorophenyl)amino)-6-(((1-(piperidin-4-yl)-1H-1,2,3-triazol-4-yl)(thiazol-4-yl)methyl)amino)-quinoline-3-carbonitrile] | 983
2 | COc1ccnc2cccc([C@H](Nc3cc(Cl)c4ncc(C#N)c(NCC(C)(C)C)c4c3)c3cn(C4(C(F)(F)F)CC4)nn3)c12 [Example 632, (S)-8-chloro-6-(((4-methoxyquinolin-5-yl)(1-(1-(trifluoromethyl)cyclopropyl)-1H-1,2,3-triazol-4-yl)methyl)amino)-4-(neopentylamino)quinoline-3-carbonitrile] | 1000
3 | N#Cc1cnc2c(Cl)cc(N[C@H](c3cn(C4CC4)nn3)c3cnccc3Cl)cc2c1Nc1cnc(F)c(F)c1 [Example 133, (S)-8-chloro-6-(((4-chloropyridin-3-yl)(1-cyclopropyl-1H-1,2,3-triazol-4-yl)methyl)amino)-4-((5,6-difluoropyridin-3-yl)amino)quinoline-3-carbonitrile] | 978
4 | Cc1nc(Cl)ccc1[C@H](Nc1cc(Cl)c2ncc(C#N)c(Nc3cnc(F)c(F)c3)c2c1)c1c[nH]nn1 [Example 169, (S)-8-chloro-6-(((6-chloro-2-methylpyridin-3-yl)(1H-1,2,3-triazol-4-yl)methyl)amino)-4-((5,6-difluoropyridin-3-yl)amino)quinoline-3-carbonitrile] | 1220

Now from value to compound:

Row | EC50 [nM] | Compound
5 | 21 | Cc1nc(F)ccc1[C@H](Nc1cc(Cl)c2ncc(C#N)c(N[C@H](CCC#N)c3ccccc3)c2c1)c1cn(C2CC2)nn1 [Example 431, 8-chloro-4-(((R)-3-cyano-1-phenyl-propyl)amino)-6-(((S)-(1-cyclopropyl-1H-1,2,3-triazol-4-yl)(6-fluoro-2-methylpyridin-3-yl)methyl)amino)-quinoline-3-carbonitrile]
6 | 538 | CCN1CCC(n2cc([C@@H](Nc3cc(Cl)c4ncc(C#N)c(Nc5ccc(F)c(Cl)c5)c4c3)c3ccc4cccnc4c3)nn2)CC1 [Example 65, (S)-8-chloro-4-((3-chloro-4-fluorophenyl)amino)-6-(((1-(1-ethylpiperidin-4-yl)-1H-1,2,3-triazol-4-yl)(quinolin-7-yl)methyl)amino)quinoline-3-carbonitrile]
7 | 73 | Cn1ncc2cccc([C@H](Nc3cc(C#N)c4ncc(C#N)c(NCC(C)(C)C)c4c3)c3cn(C4(C(F)(F)F)CC4)nn3)c21 [Example 526, (S)-6-(((1-methyl-1H-indazol-7-yl)(1-(1-(trifluoromethyl)cyclopropyl)-1H-1,2,3-triazol-4-yl)methyl)amino)-4-(neopentylamino)quinoline-3,8-dicarbonitrile]
8 | 69 | Cc1nc(F)ccc1[C@H](Nc1cc(Cl)c2ncc(C#N)c(NCC(C)(C)C)c2c1)c1cn(C2(C(C)(C)C)CC2)nn1 [Example 761, (S)-6-(((1-(1-(tert-butyl)cyclopropyl)-1H-1,2,3-triazol-4-yl)(6-fluoro-2-methylpyridin-3-yl)methyl)amino)-8-chloro-4-(neopentylamino)quinoline-3-carbonitrile]
9 | 103 | CC[C@@H](Nc1c(C#N)cnc2c(Cl)cc(N[C@@H](c3cccnc3)c3cn(C4CCCC4)nn3)cc12)c1ccccc1 [Example 213, 8-chloro-6-(((S)-(1-cyclopentyl-1H-1,2,3-triazol-4-yl)(pyridin-3-yl)methyl)amino)-4-(((R)-1-phenylpropyl)amino)quinoline-3-carbonitrile]
10 | 141 | CC(C)(C)CNc1c(C#N)cnc2c(Cl)cc(N[C@H](c3cn(C(C)(C)C(F)F)nn3)c3cccc4ncccc34)cc12 [Example 693, (S)-8-chloro-6-(((1-(1,1-difluoro-2-methylpropan-2-yl)-1H-1,2,3-triazol-4-yl)(quinolin-5-yl)methyl)amino)-4-(neopentylamino)quinoline-3-carbonitrile]
11 | 242 | Cc1ocnc1[C@H](Nc1cc(Cl)c2ncc(C#N)c(Nc3ccc(F)c(Cl)c3)c2c1)c1cn(C2CCN(C(C)(C)C)CC2)nn1 [Example 263, (S)-6-(((1-(1-(tert-butyl)piperidin-4-yl)-1H-1,2,3-triazol-4-yl)(5-methyloxazol-4-yl)methyl)amino)-8-chloro-4-((3-chloro-4-fluorophenyl)amino)quinoline-3-carbonitrile]
12 | 444 | CC(C)(C)N1CCC(n2cc([C@@H](Nc3cc(Cl)c4ncc(C#N)c(Nc5ccc(F)c(Cl)c5)c4c3)c3cocn3)nn2)CC1 [Example 348, (S)-6-(((1-(1-(tert-butyl)piperidin-4-yl)-1H-1,2,3-triazol-4-yl)(oxazol-4-yl)methyl)amino)-8-chloro-4-((3-chloro-4-fluorophenyl)amino)-quinoline-3-carbonitrile]
13 | 88 | Cc1nc(F)ccc1[C@H](Nc1cc(C#N)c2ncc(C#N)c(NCC(C)(C)C)c2c1)c1cn(C2(C(F)(F)F)COC2)nn1 [Example 644, (S)-6-(((6-fluoro-2-methylpyridin-3-yl)(1-(3-(trifluoromethyl)oxetan-3-yl)-1H-1,2,3-triazol-4-yl)methyl)amino)-4-(neopentylamino)quinoline-3,8-dicarbonitrile]
14 | 386 | CC(C)(C)CNc1c(C#N)cnc2c(Cl)cc(N[C@@H](c3ccc4cccnc4c3)c3cn(C4(C(F)F)CC4)nn3)cc12 [Example 699, (S)-8-chloro-6-(((1-(1-(difluoromethyl)cyclopropyl)-1H-1,2,3-triazol-4-yl)(quinolin-7-yl)methyl)amino)-4-(neopentylamino)quinoline-3-carbonitrile]
15 | 178 | Cc1ccc([C@H](Nc2cc(Cl)c3ncc(C#N)c(NCC(C)(C)C)c3c2)c2cn(C3(C(F)(F)F)CC3)nn2)c(C)n1 [Example 687, (S)-8-chloro-6-(((2,6-dimethylpyridin-3-yl)(1-(1-(trifluoromethyl)cyclopropyl)-1H-1,2,3-triazol-4-yl)methyl)amino)-4-(neopentylamino)quinoline-3-carbonitrile]
16 | 746 | CC(C)(C)n1cc([C@@H](Nc2cc(Cl)c3ncc(C#N)c(Nc4ccc(F)c(Cl)c4)c3c2)c2cscn2)nn1 [Example 361, (S)-6-(((1-(tert-butyl)-1H-1,2,3-triazol-4-yl)(thiazol-4-yl)methyl)-amino)-8-chloro-4-((3-chloro-4-fluorophenyl)amino)quinoline-3-carbonitrile]
17 | 370 | Cc1ncccc1[C@H](Nc1cc(Cl)c2ncc(C#N)c(Nc3ccc(F)c(Cl)c3)c2c1)c1cn(COC(=O)C(C)(C)C)nn1 [Example 274, (S)-(4-(((8-chloro-4-((3-chloro-4-fluorophenyl)amino)-3-cyanoquinolin-6-yl)amino)(2-methylpyridin-3-yl)methyl)-1H-1,2,3-triazol-1-yl)methyl pivalate]
18 | 156 | Cn1c(=O)ccc2c([C@H](Nc3cc(Cl)c4ncc(C#N)c(NCC(C)(C)C)c4c3)c3cn(C4(C(F)(F)F)CC4)nn3)cccc21 [Example 789, (S)-8-chloro-6-(((1-methyl-2-oxo-1,2-dihydroquinolin-5-yl)(1-(1-(trifluoromethyl)cyclopropyl)-1H-1,2,3-triazol-4-yl)methyl)amino)-4-(neopentylamino)quinoline-3-carbonitrile]
19 | 302 | N#Cc1cnc2c(Cl)cc(N[C@@H](c3cccnc3)c3cn(C4CCN(C5COC5)CC4)nn3)cc2c1Nc1ccc(F)c(Cl)c1 [Example 314, (S)-8-chloro-4-((3-chloro-4-fluorophenyl)amino)-6-(((1-(1-(oxetan-3-yl)piperidin-4-yl)-1H-1,2,3-triazol-4-yl)(pyridin-3-yl)methyl)amino)quinoline-3-carbonitrile]

Same assay, conditions: Homo sapiens, Monocyte, read-out: EC50 TNF, LPS-stimulated human monocytes, TNFα TR-FRET

Row | EC50 [nM] | Compound
20 | 722 | COc1ccc(C(Nc2cc(Cl)c3ncc(C#N)c(NCC(C)(C)C)c3c2)c2nnn(C)c2OC)c(C)n1 (stereo not shown) [Example 970, 8-chloro-6-(((5-methoxy-1-methyl-1H-1,2,3-triazol-4-yl)(6-methoxy-2-methylpyridin-3-yl)methyl)amino)-4-(neopentylamino)quinoline-3-carbonitrile]
21 | 212 | COc1ccc([C@H](Nc2cc(C#N)c3ncc(C#N)c(NCC(C)(C)C)c3c2)c2cn(C3(C(F)(F)F)CC3)nn2)cn1 [Example 905, (S)-6-(((6-methoxypyridin-3-yl)(1-(1-(trifluoromethyl)cyclopropyl)-1H-1,2,3-triazol-4-yl)methyl)amino)-4-(neopentylamino)quinoline-3,8-dicarbonitrile]
22 | 41 | CC1(n2cc([C@@H](Nc3cc(C#N)c4ncc(C#N)c(NCC(C)(C)C(F)(F)F)c4c3)c3cccc4ncccc34)nn2)CC1 [Example 895, (S)-6-(((1-(1-methylcyclopropyl)-1H-1,2,3-triazol-4-yl)(quinolin-5-yl)methyl)amino)-4-((3,3,3-trifluoro-2,2-dimethylpropyl)amino)quinoline-3,8-dicarbonitrile]
23 | 191 | COc1ccc([C@H](Nc2cc(Cl)c3ncc(C#N)c(NCC(C)(C)C)c3c2)c2nnn(C3(C(F)F)CC3)c2OC)c(C)n1 [Example 966, (S)-8-chloro-6-(((1-(1-(difluoromethyl)cyclopropyl)-5-methoxy-1H-1,2,3-triazol-4-yl)(6-methoxy-2-methylpyridin-3-yl)methyl)amino)-4-(neopentylamino)quinoline-3-carbonitrile]

Same assay, conditions: read-out: EC50 TNF; LPS-stimulated human monocytes, TNFα

Row | EC50 [nM] | Compound
24 | 332 | Cc1cncc([C@H](Nc2cc(Cl)c3ncc(C#N)c(Nc4ccc(F)c(Cl)c4)c3c2)c2c[nH]nn2)c1 [Example 249, (S)-8-chloro-4--((3-chloro-4-fluorophenyl)amino)-6-(((5-methylpyridin-3-yl)(1H-1,2,3-triazol-4-yl)methyl)amino)quinoline-3-carbonitrile]

Same assay, conditions: second value of the cell IC50/EC50; LPS-stimulated human monocytes, TNFα by TR-FRET

Row | Compound | IC50/EC50 [nM]: EC50 (TNFα) [nM]
25 | Cn1cc(CNc2cc(Cl)c3ncc(C#N)c(Nc4ccc(F)c(Cl)c4)c3c2)nn1 [Comparative Example 3, reference compound] | > 10000
